According to patent publication US20070270612A1, “Biocidal azole emulsion concentrates having high active ingredient content” (priority 2006, published 2007):
Like-named read-outs stand apart in the source and are kept apart here.

Experiments:
[1] = Solubility of biocides in solvents; type: physicochemical
From the text: For example, Arch Wood Protection recently received US EPA registration on an end use wood preservative product having 5.0% tebuconazole, 5.0% propiconazole, 0.5% imidacloprid, and 89.5% inert ingredients (surfactants, etc). This is near the solubility limit of the carrier, that is, very little additional biocidal azole can be dissolved in that material. This is about 20 parts biocidal azoles per part of imidacloprid. Other commercially importants formulations include tebuconazole and imidacloprid in a ratio of about 50 parts to 1 part by weight, and 4 parts biocidal azoles (tebuconazole and propiconazole) per part by weight of permethin. In contrast, an exemplary formulation of the present invention comprises 15.0% tebuconazole (range 1-35%, preferably 5-20%), 15.0% propiconazole (range 1-40%, preferably 5-20%), 1.5% imidacloprid (range 0.2%-3%), 5.0% of an emulsifier blend (range 1-15%), 60.0% of a basic solvent such as N,N-dimethyldecanamide/octanamide (range 0.0-65%), and 3.5% N-methyl pyrrolidone (range 0.0-50%). The alkyl pyrrolidones can be included in component (A) compounds if an organic biocide is particularly difficult to dissolve.
Other biocides which could be used in this invention include those in the azole family and other organic molecules in general (fungicides and insecticides) that are applicable to wood preservation. These could be combined in any number of mixtures and variations, including two-ways, four-ways, etc. or alone. A large number of surfactants that can be used as emulsifier components to make an EC. It really comes down to the formulator's preference. Similarly, there are many other solvents that could be used to dissolve these active ingredients and make an EC or microemulsion from an emulsion concentrate (MEC). When the compositions are diluted and undergo sufficient shear to form a microemulsion, the resultant microemulsion is stable at all reasonably useful levels of water dilution and remain thermodynamically stable and clear, opalescent, or only slightly cloudy. […]

[2] = Particle size distribution on wet ball milling with 0.3 mm zirconia; type: physicochemical
From the text: Milling tebuconazole with 0.3 mm zirconium oxide milling material. Tebuconazole is a preferred organic biocide for use in wood and also for selected foliar applications and for incorporation into biocidal materials. […] Exemplary other preferred biocides from the same class of material include cyproconazole, tetraconazole, difenoconazole, diniconazole, penconazole, imibenconazole, propiconazole, azaconazole, and epoxyconazole. […] A CB Mills Vertical Mill Model: L-1 mill was used in this experiment. […] The original d50 (the diameter at which 50% by weight of the particles have an effective diameter equal to or less than the d50) of the tebuconazole, prior to wet milling, was about 25 microns, with about a fourth of the tebuconazole in particles […] having a particle size less than 4 microns. The milling media was 0.3-0.5 mm Yttrium doped Zirconium Oxide. The density of the yttrium-doped zirconium oxide is ˜6.0 g/cm^3. […] Generally, for injecting into wood, we prefer less than 2% by weight of particles have a diameter greater than 1 micron, more preferably 0.7 microns. The residual large particles can be separated from the slurry by centrifugation and then be sent back to the mill for additional milling.

O=[N+]([O-])NC1=NCCN1Cc1ccc(Cl)nc1 [Imidacloprid]
solubility in most every EPA approved solvent [1]: sparingly soluble

CC(C)(C)C(O)(CCc1ccc(Cl)cc1)Cn1cncn1 (stereo not drawn) [Tebuconazole]
Volume % With Diameter 1-10 μm ([2]; milling time 0 mins): 4 Volume % | Volume % With Diameter 10-25 μm ([2]; milling time 0 mins): 42.2 Volume % | Volume % With Diameter 25-50 μm ([2]; milling time 0 mins): 27.2 Volume % | Volume % With Diameter >50 μm ([2]; milling time 0 mins): 26.6 Volume % | Volume % With Diameter 0.2-1 μm ([2]; milling time 150 mins): 20.7 Volume % | Volume % With Diameter 1-10 μm ([2]; milling time 150 mins): 4.2 Volume % | Volume % With Diameter 10-25 μm ([2]; milling time 150 mins): 3.6 Volume % | Volume % With Diameter 25-50 μm ([2]; milling time 150 mins): 0 Volume % | Volume % With Diameter <0.2 μm ([2]; milling time 150 mins): 71.5 Volume % | Volume % With Diameter >50 μm ([2]; milling time 150 mins): 0 Volume % | d50 ([2]; prior to wet milling): about 25 microns | weight % having a particle size less than 4 microns ([2]; prior to wet milling): about 4 % by weight | solubility in N,N-dimethylcapramide [1]: very soluble

CCCC1COC(Cn2cncn2)(c2ccc(Cl)cc2Cl)O1 (stereo not drawn) [propiconazole]
solubility in N,N-dimethylcapramide ([1]; solvent N,N-DMC): very soluble
